# Source: patent publication US20130123494A1, “COMPLEX COMPOUND AND OPTICAL RECORDING MEDIUM CONTAINING SAME” (KH NEOCHEM CO., LTD., priority 2010, published 2013)
# How the values were obtained:
# Assay type in all cases: physicochemical
# [1] = Lightfastness test of thin films; details: thin film on glass plate, UV fluorescent lamps 15 W/m^2, 45° C., 10 hours
# Text: Thin films of Complex Compounds (2) to (5), (7), (9) to (11), (13) to (21), (24), (26), (28), (30), (31), and (33) were respectively obtained similarly to the film-forming test except that a glass plate (manufactured by Taiyu Kizai Co., Ltd.; 2 cm×2 cm; thickness: 2 mm) was used as the substrates instead of the plate made of polycarbonate resin. Using a dewpanel light control weather meter DPWL-5R, manufactured by Suga Test Instruments Co., Ltd., which was equipped with ultraviolet fluorescent lamps (SUGA-FS40, manufactured by Suga Test Instruments Co., Ltd., having a peak wavelength of 313 nm and an illuminance distribution of 282 nm to 373 nm), light was irradiated on the thin films with an amount of light of 15 W/m^2 at 45° C. for 10 hours. Ultraviolet-visible absorption spectra of the thin film before and after the lightfastness test were measured using a spectrophotometer.
# Here, the absorption maximum wavelength after lightfastness test denotes an absorption maximum wavelength in the absorption spectrum after the lightfastness test.
# [2] = Moisture- and heat-resistances test of thin films; details: thin film, 80° C., relative humidity 80%, 100 hours
# Method: Similarly to the film-forming test, thin films of Complex Compounds (2) to (5), (7), (9) to (11), (13) to (21), (24), (26), (28), (30), (31), and (33) were respectively obtained. Using a constant temperature and humidity chamber, KHWII-40HP, manufactured by Satake Chemical Equipment Mfg Ltd., the thin films were exposed in the atmosphere having a temperature of 80° C. and a relative humidity of 80% for 100 hours. Ultraviolet-visible absorption spectra of the thin films before and after the moisture- and heat-resistances test were measured using a spectrophotometer. […] Here, the absorption maximum wavelength after the moisture- and heat-resistances test denotes the absorption maximum wavelength in an absorption spectrum after the moisture- and heat-resistances test.
# [3] = Test of storage stability in solution; details: 13 mg in 1 mL TFP, brown bottle, 25° C., 3 days; 1250-fold diluted for measurement
# Method: Each of 13 mg of Complex Compounds (2) to (5), (7), (9) to (11), (13) to (21), (24), (26), (28), (30), (31), and (33) was dissolved in 1 mL of TFP, which was filtered with a filter made of TEFLON (registered trademark) (manufactured by Whatman, having a pore diameter of 0.20 μm), and solutions of Complex Compounds (2) to (5), (7), (9) to (11), (13) to (21), (24), (26), (28), (30), (31), and (33) were respectively obtained. Each of the obtained solutions was transferred to a brown bottle with a lid and stored at 25° C. for 3 days. Before and after the storage stability test, using a spectrophotometer, 1250-fold diluted solutions of Complex Compounds (2) to (5), (7), (9) to (11), (13) to (21), (24), (26), (28), (30), (31), and (33), respectively, were measured for their ultraviolet-visible absorption spectra. […] Here, the absorption maximum wavelength after the storage stability test is the absorption maximum wavelength in the absorption spectrum after the storage stability test.
# [4] = Water resistance test of thin films
# Method: Similarly to the film-forming test, thin films of Complex Compounds (2), (3), (13), (19), and (20) were respectively obtained. Ultraviolet-visible absorption spectra of the thin films were measured using a spectrophotometer before and after the water resistance test in which the thin films were immersed in water at 75° C. for 30 minutes. […] Here, the absorption maximum wavelength after the water resistance test denotes the absorption maximum wavelength in the absorption spectrum after the water resistance test. […] Here, the water resistance test is a test under severe conditions, and a thin film having the ratio (I^d/I^d0) of 0.5 or greater has favorable water resistance.
# [5] = thin film immersed in water at 75° C. for 30 minutes
Structure (SMILES),I^a/I^a0 (absorbance ratio at absorption maximum after/before lightfastness test) [1],I^b/I^b0 (absorbance ratio at absorption maximum after/before moisture- and heat-resistances test) [2],Δλmax(b) (change in absorption maximum wavelength) [2] [nm],I^c/I^c0 (absorbance ratio at absorption maximum after/before storage stability test) [3],Δλmax(c) (change in absorption maximum wavelength) [3] [nm],"I^d/I^d0 (absorbance ratio at absorption maximum after/before water resistance test) [4, 5]","Δλmax (d) (change in absorption maximum wavelength) [4, 5] [nm]",Water resistance of thin film (in words) ([4]; thin film in water at 75° C. for 30 minutes)
CCCCn1c([O-])c(/C=N/[N-]c2nnnn2-c2ccccc2)c(C)c(C#N)c1=O.CCCCn1c([O-])c(/C=N/[N-]c2nnnn2-c2ccccc2)c(C)c(C#N)c1=O.CCCCn1c([O-])c(/C=N/[N-]c2nnnn2-c2ccccc2)c(C)c(C#N)c1=O.CCCCn1c([O-])c(/C=N/[N-]c2nnnn2-c2ccccc2)c(C)c(C#N)c1=O.Fc1cccc(-[n+]2ccc(-c3cc[n+](-c4cccc(F)c4)cc3)cc2)c1.[Co+3].[Co+3] [Complex Compound (2)],0.92,0.97,0.5,1.00,0,0.73,0.5,superior water resistance
COc1ccc2cc3[n+](cc2c1OC)CCc1cc2c(cc1-3)OCO2.Cc1c(/C=N/[N-]c2nnnn2-c2ccccc2)c([O-])n(CC(C)C)c(=O)c1C#N.Cc1c(/C=N/[N-]c2nnnn2-c2ccccc2)c([O-])n(CC(C)C)c(=O)c1C#N.[Co+3] [Complex Compound (18)],0.90,1.00,0,1.00,0,,,
Cc1c(/C=N/[N-]c2nnnn2-c2ccccc2)c([O-])n(CC(C)C)c(=O)c1C#N.Cc1c(/C=N/[N-]c2nnnn2-c2ccccc2)c([O-])n(CC(C)C)c(=O)c1C#N.Cc1c(/C=N/[N-]c2nnnn2-c2ccccc2)c([O-])n(CC(C)C)c(=O)c1C#N.Cc1c(/C=N/[N-]c2nnnn2-c2ccccc2)c([O-])n(CC(C)C)c(=O)c1C#N.[Co+3].[Co+3].c1ccc2c[n+](CCCCCCCCCC[n+]3ccc4ccccc4c3)ccc2c1 [Complex Compound (16)],0.90,1.00,0,1.01,0,,,
CCn1c([O-])c(/C=N/[N-]C(=O)c2ccc(C(F)(F)F)cc2)c(C)c(C#N)c1=O.CCn1c([O-])c(/C=N/[N-]C(=O)c2ccc(C(F)(F)F)cc2)c(C)c(C#N)c1=O.CCn1c([O-])c(/C=N/[N-]C(=O)c2ccc(C(F)(F)F)cc2)c(C)c(C#N)c1=O.CCn1c([O-])c(/C=N/[N-]C(=O)c2ccc(C(F)(F)F)cc2)c(C)c(C#N)c1=O.[Co+3].[Co+3].c1cc[n+]2c(c1)-c1cccc[n+]1CCC2 [Complex Compound (11)],0.97,1.00,0,1.00,0,,,
Cc1c(/C=N/[N-]c2nc3ccccc3o2)c([O-])n(Cc2ccco2)c(=O)c1C#N.Cc1c(/C=N/[N-]c2nc3ccccc3o2)c([O-])n(Cc2ccco2)c(=O)c1C#N.Cc1c(/C=N/[N-]c2nc3ccccc3o2)c([O-])n(Cc2ccco2)c(=O)c1C#N.Cc1c(/C=N/[N-]c2nc3ccccc3o2)c([O-])n(Cc2ccco2)c(=O)c1C#N.Fc1cccc(-[n+]2ccc(-c3cc[n+](-c4cccc(F)c4)cc3)cc2)c1.[Co+3].[Co+3] [Complex Compound (24)],0.92,1.00,0.5,1.02,0.5,,,
Cc1c(/C=N/[N-]c2nnnn2-c2ccccc2)c([O-])n(CC(C)C)c(=O)c1C#N.Cc1c(/C=N/[N-]c2nnnn2-c2ccccc2)c([O-])n(CC(C)C)c(=O)c1C#N.Cc1c(/C=N/[N-]c2nnnn2-c2ccccc2)c([O-])n(CC(C)C)c(=O)c1C#N.Cc1c(/C=N/[N-]c2nnnn2-c2ccccc2)c([O-])n(CC(C)C)c(=O)c1C#N.[Co+3].[Co+3].c1ccc2c[n+](CCCCCC[n+]3ccc4ccccc4c3)ccc2c1 [Complex Compound (17)],0.88,0.98,0,0.98,0,,,
CCCCn1c([O-])c(/C=N/[N-]c2nnnn2-c2ccccc2)c(CCC)c(C#N)c1=O.CCCCn1c([O-])c(/C=N/[N-]c2nnnn2-c2ccccc2)c(CCC)c(C#N)c1=O.CCCCn1c([O-])c(/C=N/[N-]c2nnnn2-c2ccccc2)c(CCC)c(C#N)c1=O.CCCCn1c([O-])c(/C=N/[N-]c2nnnn2-c2ccccc2)c(CCC)c(C#N)c1=O.[Co+3].[Co+3].c1cc2ccc3ccc[n+]4c3c2[n+](c1)CCC4 [Complex Compound (28)],0.88,0.99,0,0.99,0,,,
CCn1c([O-])c(/C=N/[N-]C(=O)c2ccc(C(F)(F)F)cc2)c(C)c(C#N)c1=O.CCn1c([O-])c(/C=N/[N-]C(=O)c2ccc(C(F)(F)F)cc2)c(C)c(C#N)c1=O.CCn1c([O-])c(/C=N/[N-]C(=O)c2ccc(C(F)(F)F)cc2)c(C)c(C#N)c1=O.CCn1c([O-])c(/C=N/[N-]C(=O)c2ccc(C(F)(F)F)cc2)c(C)c(C#N)c1=O.[Co+3].[Co+3].c1cc2ccc3ccc[n+]4c3c2[n+](c1)CCC4 [Complex Compound (10)],0.99,1.00,0.5,1.00,0,,,
